The values below are quoted from earlier work in patent US11612885B2, “Methods, compositions and kits useful for pH gradient cation exchange chromatography” (WATERS TECHNOLOGIES CORPORATION, priority 2018, dated 2023).

The conditions of series [1]: buffer salts used in the Examples.
For series [2] the following is noted: background statement; exposure.

For the compound `NCC(=O)NCC(=O)O` [Gly-Gly, 2-[(2-Aminoacetyl)amino] acetic acid], in series [1], the pKa1 was 3.1 and the pKa2 is 8.1.
`CC(C)(N)CO` [AMP, 2-amino-2-methyl-1-propanol]: the pKa1 in series [1] is listed as 9.7.
Take `NC(=O)CNCCS(=O)(=O)O` [ACES, 2-(carbamoylmethylamino)ethanesulfonic acid]: the pKa1 in series [1] is reported as 6.9.
On to `O=C(O)CCC(=O)O` [Succinic Acid, 1,4-butandioic acid], for which, in series [1], the pKa1 is recorded as 4.1 and the pKa2 was 5.5.
Consider `NCC(=O)O` [Gly, Aminoethanoic acid], for which, in series [1], the pKa1 is given as 2.4 and the pKa2 is 8.1.
For `C1CNCCN1` [Piperazine, 1,4-Diazinane], the known toxicity result in series [2] is “acute respiratory and skin irritation as well as organ damage with prolonged exposure”.
Take `O=S(=O)(O)CCCNC1CCCCC1` [CAPS, 3-(Cyclohexylamino)-1-propanesulfonic acid]: the pKa1 in series [1] was 10.4.
`c1c[nH]cn1` [Imidazole, 1,3-diazacyclopenta-2,4-diene]: the pKa1 in series [1] was 7.0.
Take `CC(N)(CO)CO` [AMPD, 2-amino-2-methyl-1,3-propanediol]: the pKa1 in series [1] is 8.8.
Consider `OCC(CO)(CO)NCCCNC(CO)(CO)CO` [BIS-TRIS Propane, 1,3-bis(tris(hydroxymethyl)methylamino)propane], for which, in series [1], the pKa1 is listed as 6.8 and the pKa2 was 9.1.
